Structures can show the parent of a compound that is named as a salt. Where two headings read alike, the source gives them in different places.
How the values were obtained:
[1] = target: T1, isolated guinea pig ileum (bethanechol induced contractions) (Cavia porcellus, UniProt H0W1Z3); test: antispasmodic activity on isolated guinea pig ileum with bethanechol as spasmogen; design: species or system guinea pig (Dunkin Hartley); settings: cumulative bethanechol 0.3-30 μM, antagonist 60 min before, Tyrode solution, 37° C.; KB from dose-ratio; read-out: Antispasmodic activity. Dissociation constants (KB) for bethanechol induced contractions in the guinea pig ileum
T1 construct: a 2 cm piece of terminal ileum was rapidly excised; from tissue; host or cells: guinea pig terminal ileum (Dunkin Hartley)

[2] = target: T2, muscarinic receptors of the cerebral cortex (Rattus norvegicus, UniProt P08482); test: biochemical; design: species or system male CD-COOBBS rats; settings: read-out: Antimuscarinic effect. Dissociation constants (KD) for ^3 H-pirenzepine binding
T2 sequence (P08482 1-460): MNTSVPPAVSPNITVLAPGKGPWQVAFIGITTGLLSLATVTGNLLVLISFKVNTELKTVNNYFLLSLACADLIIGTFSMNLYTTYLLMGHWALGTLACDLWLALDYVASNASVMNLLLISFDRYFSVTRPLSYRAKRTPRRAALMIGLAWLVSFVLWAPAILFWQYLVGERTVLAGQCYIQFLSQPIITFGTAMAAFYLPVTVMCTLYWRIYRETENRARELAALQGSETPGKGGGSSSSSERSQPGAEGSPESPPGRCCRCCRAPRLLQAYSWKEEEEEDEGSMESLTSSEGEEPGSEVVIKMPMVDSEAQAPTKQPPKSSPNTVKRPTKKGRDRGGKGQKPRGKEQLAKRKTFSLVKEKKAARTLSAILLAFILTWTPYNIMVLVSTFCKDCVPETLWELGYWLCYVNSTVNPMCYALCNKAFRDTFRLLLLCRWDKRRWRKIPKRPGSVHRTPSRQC

[3] = competition against 0.5 nM ^3 H-pirenzepine, rat cerebral cortex homogenate, 45 min at 30° C., pH 7.4, corrected for radioligand occupancy shift

T1 sequence (H0W1Z3 1-590): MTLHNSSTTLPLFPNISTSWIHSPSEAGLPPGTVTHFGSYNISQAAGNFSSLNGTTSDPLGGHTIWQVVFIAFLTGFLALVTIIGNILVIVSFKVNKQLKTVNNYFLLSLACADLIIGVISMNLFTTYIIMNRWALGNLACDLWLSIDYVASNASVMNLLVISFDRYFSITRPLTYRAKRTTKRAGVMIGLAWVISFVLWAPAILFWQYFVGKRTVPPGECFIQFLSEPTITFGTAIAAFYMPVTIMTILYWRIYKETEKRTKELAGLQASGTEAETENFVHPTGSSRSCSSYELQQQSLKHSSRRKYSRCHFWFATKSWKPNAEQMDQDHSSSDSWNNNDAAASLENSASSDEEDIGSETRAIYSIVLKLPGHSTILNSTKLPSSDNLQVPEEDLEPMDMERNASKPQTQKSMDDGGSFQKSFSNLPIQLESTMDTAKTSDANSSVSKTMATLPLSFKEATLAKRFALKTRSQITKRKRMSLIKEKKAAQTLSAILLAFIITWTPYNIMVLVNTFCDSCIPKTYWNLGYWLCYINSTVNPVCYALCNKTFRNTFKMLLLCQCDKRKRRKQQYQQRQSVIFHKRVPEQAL

Compound	Kb [1]	Kd [2, 3]	Kd [2]
CC1=NCCN1CCCC(O)(c1ccccc1)C1CCCCC1 (stereo not drawn) [Compound 21, 1-(4-Phenyl-4-cyclohexyl-4-hydroxy)butyl-2-methyl-2-imidazoline hydrochloride]	3.4 nM	7.4 nM	–
NC1=NCC(OC(=O)C2(C3CCCCC3)CCCCC2)CN1 (stereo not drawn) [Compound 15, 2-Amino-1,4,5,6-tetrahydropyrimidin-5-yl 1-cyclohexylcyclohexane-1-carboxylate formate]	0.46 nM	–	2.7 nM
OC(CCN1C=NCC1)(c1ccccc1)C1CCCCC1 (stereo not drawn) [Compound 23, 1-(3-phenyl-3-cyclohexyl-3-hydroxy)propyl-2-imidazoline hydrochloride]	6.2 nM	14 nM	–
CC1=NCCN1CCC(O)(c1ccccc1)C1CCCCC1 (stereo not drawn) [Compound 2, 1-(3-Phenyl-3-cyclohexyl-3-hydroxy)propyl-2-methyl-2-imidazoline hydrochloride]	1.7 nM	3 nM	–
OC(CCCN1C=NCCC1)(c1ccccc1)C1CCCCC1 (stereo not drawn) [Compound 22, 1-(4-Phenyl-4-cyclohexyl-4-hydroxy)butyl-1,4,5,6-tetrahydropyrimidine hydrochloride]	1.5 nM	5 nM	–
OC(CCN1C=NCCC1)(c1ccccc1)C1CCCCC1 (stereo not drawn) [Compound 1, 1-(3-Phenyl-3-cyclohexyl-3-hydroxy)propyl-1,4,5,6-tetrahydropyrimidine hydrochloride]	1 nM	4.2 nM	–

Source: US4973592A, “1,3-diazocycloalkenes as muscarinic receptor blocking agents” (Istituto de Angeli, priority 1987, dated 1990)
